Laboratory results published in ChEMBL document CHEMBL3885881, “DrugMatrix”.

Organism: Rattus norvegicus
Assay: DrugMatrix - Regimen: Daily Repeat
Format: toxicity, organism-based, Sprague-Dawley
Parameters: regimen Daily Repeat, gender Male, age 6-8 weeks
Conditions: in vivo, po, […], route oral GAVAGE, dose 1.7 mg/Kg, dose level Low; for ABSOLUTE BASOPHIL / ABSOLUTE EOSINOPHIL / ABSOLUTE LYMPHOCYTE / ABSOLUTE MONOCYTE / ABSOLUTE SEGMENTED NEUTROPHIL / BASOPHIL / EOSINOPHIL / ERYTHROCYTE COUNT / HEMATOCRIT / HEMOGLOBIN / LEUKOCYTE COUNT / LYMPHOCYTE / MEAN CORPUSCULAR HEMOGLOBIN / MEAN CORPUSCULAR HEMOGLOBIN CONCENTRATION / MEAN CORPUSCULAR VOLUME / MONOCYTE / NEUTROPHIL / NUCLEATED RED BLOOD CELLS / PLATELET COUNT: tissue Blood; for ALANINE AMINOTRANSFERASE / ALBUMIN / ALKALINE PHOSPHATASE / ASPARTATE AMINOTRANSFERASE / BLOOD UREA NITROGEN / CARBON DIOXIDE / CHLORIDE / CHOLESTEROL / CREATINE PHOSPHOKINASE / CREATININE / GLUCOSE / LACTATE DEHYDROGENASE / LIPASE / PHOSPHORUS / POTASSIUM / SODIUM / TOTAL BILIRUBIN / TOTAL PROTEIN / URIC ACID: tissue Plasma

In the case of `C#C[C@]1(OC(C)=O)CC[C@H]2[C@@H]3CCC4=CC(=O)CC[C@@H]4[C@H]3CC[C@@]21C` [NORETHINDRONE ACETATE], the “ABSOLUTE BASOPHIL” value (72 h, time 3 day) is reported as 0 CELLS/uL, the “ABSOLUTE EOSINOPHIL” value (72 h, time 3 day) is reported as 0 CELLS/uL and the “ABSOLUTE LYMPHOCYTE” value (72 h, time 3 day) is reported as 14146.67 CELLS/uL. The “ABSOLUTE MONOCYTE” value (72 h, time 3 day) was 167 CELLS/uL, the “ABSOLUTE SEGMENTED NEUTROPHIL” value (72 h, time 3 day) was 1486.33 CELLS/uL and the BASOPHIL (72 h, time 3 day) was 0%. The EOSINOPHIL (72 h, time 3 day) was 0%, the “ERYTHROCYTE COUNT” value (72 h, time 3 day) was 5.62 x10E6/uL and the HEMATOCRIT (72 h, time 3 day) was 33.97%. For the same compound, the HEMOGLOBIN (72 h, time 3 day) was 13.3 G/DL, the “LEUKOCYTE COUNT” value (72 h, time 3 day) was 15.8 x10E3/uL and the LYMPHOCYTE (72 h, time 3 day) was 89.33%. For the same compound, the “MEAN CORPUSCULAR HEMOGLOBIN” value (72 h, time 3 day) was 23.7 pg, the “MEAN CORPUSCULAR HEMOGLOBIN CONCENTRATION” value (72 h, time 3 day) was 39.17 G/DL and the “MEAN CORPUSCULAR VOLUME” value (72 h, time 3 day) was 60.5 fL. For the same compound, the MONOCYTE (72 h, time 3 day) was 1%, the NEUTROPHIL (72 h, time 3 day) was 9.67% and the “NUCLEATED RED BLOOD CELLS” value (72 h, time 3 day) was 0 /100WBC. The “PLATELET COUNT” value (72 h, time 3 day) was 1255.67 x10E3/uL, the “ALANINE AMINOTRANSFERASE” value (72 h, time 3 day) was 61.67 u/L and the ALBUMIN (72 h, time 3 day) was 4.07 G/DL. The “ALKALINE PHOSPHATASE” value (72 h, time 3 day) was 473.33 u/L, the “ASPARTATE AMINOTRANSFERASE” value (72 h, time 3 day) was 85 u/L and the “BLOOD UREA NITROGEN” value (72 h, time 3 day) was 14.33 mg/dL. For the same compound, the “CARBON DIOXIDE” value (72 h, time 3 day) was 26.67 mmol/L, the CHLORIDE (72 h, time 3 day) was 99.67 MEQ/L and the CHOLESTEROL (72 h, time 3 day) was 62.33 mg/dL. For the same compound, the “CREATINE PHOSPHOKINASE” value (72 h, time 3 day) was 351 u/L, the CREATININE (72 h, time 3 day) was 0.17 mg/dL and the GLUCOSE (72 h, time 3 day) was 158.33 mg/dL. The “LACTATE DEHYDROGENASE” value (72 h, time 3 day) was 371.33 u/L, the LIPASE (72 h, time 3 day) was 10.33 u/L and the PHOSPHORUS (72 h, time 3 day) was 12.87 mg/dL. The POTASSIUM (72 h, time 3 day) was 6.54 MEQ/L, the SODIUM (72 h, time 3 day) was 143.43 MEQ/L and the “TOTAL BILIRUBIN” value (72 h, time 3 day) was 0.17 mg/dL. The “TOTAL PROTEIN” value (72 h, time 3 day) was 5.73 G/DL, the “URIC ACID” value (72 h, time 3 day) was 1.37 mg/dL and the “ABSOLUTE BASOPHIL” value (120 h, time 5 day) was 0 CELLS/uL. The “ABSOLUTE EOSINOPHIL” value (120 h, time 5 day) was 62 CELLS/uL, the “ABSOLUTE LYMPHOCYTE” value (120 h, time 5 day) was 13760.33 CELLS/uL and the “ABSOLUTE MONOCYTE” value (120 h, time 5 day) was 100.67 CELLS/uL. For the same compound, the “ABSOLUTE SEGMENTED NEUTROPHIL” value (120 h, time 5 day) was 1110.33 CELLS/uL, the BASOPHIL (120 h, time 5 day) was 0% and the EOSINOPHIL (120 h, time 5 day) was 0.33%. For the same compound, the “ERYTHROCYTE COUNT” value (120 h, time 5 day) was 5.76 x10E6/uL, the HEMATOCRIT (120 h, time 5 day) was 36.33% and the HEMOGLOBIN (120 h, time 5 day) was 14.4 G/DL. The “LEUKOCYTE COUNT” value (120 h, time 5 day) was 15.03 x10E3/uL, the LYMPHOCYTE (120 h, time 5 day) was 91.67% and the “MEAN CORPUSCULAR HEMOGLOBIN” value (120 h, time 5 day) was 25.07 pg. The “MEAN CORPUSCULAR HEMOGLOBIN CONCENTRATION” value (120 h, time 5 day) was 39.67 G/DL, the “MEAN CORPUSCULAR VOLUME” value (120 h, time 5 day) was 63.17 fL and the MONOCYTE (120 h, time 5 day) was 0.67%. The NEUTROPHIL (120 h, time 5 day) was 7.33%, the “NUCLEATED RED BLOOD CELLS” value (120 h, time 5 day) was 0 /100WBC and the “PLATELET COUNT” value (120 h, time 5 day) was 1087.33 x10E3/uL. For the same compound, the “ALANINE AMINOTRANSFERASE” value (120 h, time 5 day) was 65.33 u/L, the ALBUMIN (120 h, time 5 day) was 4.13 G/DL and the “ALKALINE PHOSPHATASE” value (120 h, time 5 day) was 463.33 u/L. For the same compound, the “ASPARTATE AMINOTRANSFERASE” value (120 h, time 5 day) was 99 u/L, the “BLOOD UREA NITROGEN” value (120 h, time 5 day) was 16 mg/dL and the “CARBON DIOXIDE” value (120 h, time 5 day) was 28.67 mmol/L. The CHLORIDE (120 h, time 5 day) was 98.67 MEQ/L, the CHOLESTEROL (120 h, time 5 day) was 59.33 mg/dL and the “CREATINE PHOSPHOKINASE” value (120 h, time 5 day) was 362.33 u/L. For the same compound, the CREATININE (120 h, time 5 day) was 0.2 mg/dL, the GLUCOSE (120 h, time 5 day) was 142 mg/dL and the “LACTATE DEHYDROGENASE” value (120 h, time 5 day) was 548.33 u/L. It also gave an LIPASE (120 h, time 5 day) of 10.33 u/L, a PHOSPHORUS (120 h, time 5 day) of 12.73 mg/dL and a POTASSIUM (120 h, time 5 day) of 6.67 MEQ/L. The SODIUM (120 h, time 5 day) was 145.33 MEQ/L, the “TOTAL BILIRUBIN” value (120 h, time 5 day) was 0.23 mg/dL and the “TOTAL PROTEIN” value (120 h, time 5 day) was 5.93 G/DL. The “URIC ACID” value (120 h, time 5 day) was 1.63 mg/dL.
